According to a melting point compilation (Tetko et al.; mined from patent text by program, amines drawn as free bases though some values may be those of a salt):

Compared with `CC1(C)COC(=O)N1c1nc(-c2csc(C#N)c2)cs1`, `Cc1csc(N2C(=O)C(Cc3ccccc3)NC2=S)n1` (centres undefined) is lower in melting point: 249 to 252 °C for the first, 169 to 171 °C for the second.

Compared with `O=C(N[C@H]1CC[C@@H](F)CC1)OCc1ccccc1`, `O=C(c1nc2ccc(O)cc2[nH]1)N1CCC(Cc2ccccc2)CC1` is higher in melting point: 105 to 107 °C for the first, 186 °C for the second.

First: O=C1c2c(Br)cccc2S(=O)(=O)N1CCl
Second: C[C@@H](O)CNc1c(-c2ccc(F)cc2)c(=O)c1=O
The melting point of the first is lower: 157 to 159 °C for the first, 235 to 237 °C for the second.

First: CCNC(=O)NCCc1cccc(-c2nc(=O)c3ccccc3s2)n1
Second: CN(C)CCCC(=O)Nc1nc2c(s1)-c1c(cnn1-c1ccccc1)CC2
The melting point of the first is higher: 240 to 242 °C for the first, 165 to 166 °C for the second.

Compared with `CCOC(=O)Cc1cc(C)c(C(=O)c2ccc(Cl)cc2Cl)n1C`, `CCOC(=O)c1c2ccc(Cl)cc2c(-c2ccccc2)n1CC(=O)N(CC)CC` is higher in melting point: 90 to 92 °C for the first, 118 to 120 °C for the second.

Compared with `NC(=O)CCCON1CCNC1=Nc1c(Cl)cccc1Cl`, `O=C(O)c1cccc(-c2ccc3c(c2)N(Cc2cc(Cl)ccc2Cl)CC3)c1` is higher in melting point: 140 to 141 °C for the first, 198 to 199 °C for the second.

Compared with `Cc1ccc(S(=O)(=O)NCC(CC(=O)Nc2ccccc2)c2ccc(Cl)cc2)cc1` (centres undefined), `O=C1CC(c2ccccc2)c2cc(C(=O)c3ccc(Cl)cc3)ccc2N1` (centres undefined) is higher in melting point: 200 to 202 °C for the first, 204 °C for the second.

First: CCCCCCCCCCN1C(=O)C2CC2(c2ccc(N)cc2)C1=O (centres undefined)
Second: CCCCCCCCCCNC1=CC(=O)c2c(OC)ccc(OC)c2C1=O
The melting point of the first is higher: 92 to 94 °C for the first, 86 to 87 °C for the second.

Compared with `COC(=O)C=C(CC(=O)OC)NCc1ccccc1`, `CCOC(=O)c1cnc(Nc2ccccc2)[nH]c1=O` is higher in melting point: 67 to 69 °C for the first, 267 to 269 °C for the second.

Compared with `COc1cc(OC)c(/C=C/S(=O)(=O)Cc2ccc(OC)c(NC(C)C(=O)O)c2)c(OC)c1` (centres undefined), `COc1ccc(-c2cnn3cc(C(=O)O)cnc23)cc1OC` is higher in melting point: 176 to 180 °C for the first, 229 to 231 °C for the second.

First: CCN(CC)C(=S)c1cccc(F)c1[Si](C)(C)C
Second: Cc1ccc(NCCC(N)=S)c(C)c1
The melting point of the first is lower: 71 to 73 °C for the first, 104 to 105 °C for the second.

Compared with `COC(=O)c1cc(-c2ccncc2)cc2c1OC(c1ccccc1)(c1ccccc1)O2`, `CC(C)(C)c1cc(C(=O)COc2ccc(C(=O)OCc3ccccc3)c(O)c2)ccc1OCc1ccccc1` is lower in melting point: 151 to 152 °C for the first, 91 to 93 °C for the second.

First: CC(=O)OCC(C(OC(C)=O)c1ccc([N+](=O)[O-])cc1)[N+](=O)[O-] (centres undefined)
Second: Cn1cccc1C(=O)C(C#N)C(=O)Nc1ccc([N+](=O)[O-])cc1 (centres undefined)
The melting point of the first is lower: 63 to 66 °C for the first, 193 to 195 °C for the second.

First: CSC(=NS(=O)(=O)c1cccnc1)SC
Second: CC(C)(C)c1cc(NC(=O)Nc2csc(-c3cccnc3)n2)no1
The melting point of the first is lower: 115 to 118 °C for the first, 230 to 232 °C for the second.

First: COCCOC(=O)Nc1cc(N2CC=CCC2)nc(N)n1
Second: CCCOc1ccccc1C(=O)Nc1cc(SC)ccc1C(N)=O
The melting point of the first is lower: 136 °C for the first, 178 to 181 °C for the second.

Compared with `O=C1N(Cn2nc3ccccc3n2)c2ccccc2C12COc1cc3c(cc12)CCO3` (centres undefined), `c1ccc2c(c1)nc(-c1ccc3c(c1)OCO3)n2Cc1ccc2c(c1)OCO2` is higher in melting point: 102 to 105 °C for the first, 173 to 174 °C for the second.

First: CCCc1c2nc(C(=O)Nc3ccccc3)cc(Cl)c2cc2c(=O)cc(C(=O)Nc3ccccc3)oc12
Second: O=C(c1ccccc1)c1cc(Cl)ccc1C=CCN1C(=O)c2ccccc2C1=O
The melting point of the first is higher: > 315 °C for the first, 70 to 72 °C for the second.

First: COc1cc(N)c(Cl)cc1C(=O)NC1CCN(CC2CCN(C(=O)N(C)C)CC2)CC1
Second: CN(C(=O)OC(C)(C)C)[C@@H](Cc1ccc(O)cc1)C(=O)N1CCN(c2ccc(Cl)c(Cl)c2)CC1
The melting point of the first is higher: 124 to 126 °C for the first, 77 to 78 °C for the second.

First: CN(c1cc(OC(F)(F)F)cc2cc(C3=NCC(CC(N)=O)S3)[nH]c12)S(=O)(=O)c1cccs1 (centres undefined)
Second: COC(=O)CCCc1cc2nc(Cl)ccc2n1S(=O)(=O)c1ccc2c(c1)OCO2
The melting point of the first is higher: 202 to 203 °C for the first, 120 °C for the second.

First: CCCCN1CCC(n2nc(-c3c(-c4ccccc4)nn4ccccc34)ccc2=O)CC1
Second: CCn1ncc2c(NC3CCc4ccccc43)c3ccccc3nc21 (centres undefined)
The melting point of the first is lower: 106 to 108 °C for the first, 233 to 235 °C for the second.

First: N#Cc1cc(F)c(N=c2snc3n2CCCC3)cc1F
Second: O=C(O)c1cn(C2CCC2)c2c(F)c(F)c(F)cc2c1=O
The melting point of the first is lower: 137 °C for the first, 192 to 194 °C for the second.

First: CC(=O)Oc1ccc(C(=O)O)cc1C
Second: CCCOc1ccc(C(=O)O)cc1C(C)=O
The melting point of the first is higher: 169 to 171 °C for the first, 165 to 169 °C for the second.

Compared with `CCc1nc2c(c(C)c(C)n3nnnc23)n1CCOCCNS(C)(=O)=O`, `CCOCn1c(C(=O)c2cc(C)cc(C)c2)c(CC)c(=O)[nH]c1=O` is lower in melting point: 216 to 218 °C for the first, 184 °C for the second.

First: c1c(N2CCNCC2)nc(N2CCC3(CC2)OCCO3)nc1N1CCC2(CC1)OCCO2
Second: Cc1c(SCCN2CCOCC2)ccnc1CSc1nc2ccccc2[nH]1
The melting point of the first is lower: 130 to 140 °C for the first, 201 to 203 °C for the second.

First: O=C1NC(=O)C(N(CC#Cc2ccc(F)cc2)c2ccc(CCNCC(O)COc3ccc(OCc4ccccc4)cc3)cc2)S1 (centres undefined)
Second: Cc1oc(-c2ccccc2)nc1COc1ccc(CON=C(CCC(=O)O)c2ccc(F)cc2)cc1
The melting point of the first is lower: 99 to 101 °C for the first, 139 to 140 °C for the second.

First: COc1ccc(C(=O)c2ccc(Cl)c(S(N)(=O)=O)c2)cc1
Second: COc1ccc(-n2c(=O)[nH]c3c(C(N)=O)nc(-c4cccc(O)c4)nc32)cc1
The melting point of the first is lower: 156 to 158 °C for the first, 386 to 388 °C for the second.

First: O=S(=O)(c1ccc(Cl)cc1)C(c1cc(F)ccc1F)c1cc(NCc2ccncc2)ncc1Cl (centres undefined)
Second: Cn1cncc1-c1nc(-c2cccc(Cl)c2)c2cc(C(O)(c3ccc(Cl)cc3)c3cncn3C)ccc2n1 (centres undefined)
The melting point of the first is lower: 141 to 142 °C for the first, 160 °C for the second.

First: COc1ccnc(CCc2nc3cc(-c4ccc(O)cc4)cnc3[nH]2)c1
Second: CC1(C)CC(=C(c2ccc(O)cc2)c2ccc(OCCO)cc2)CC(C)(C)C1
The melting point of the first is higher: 206 to 208 °C for the first, 154 to 155 °C for the second.

First: CC(=O)OCOC(c1ccccc1)n1cc(F)c(=O)[nH]c1=O (centres undefined)
Second: O=C(c1ccccc1)n1c(=O)c(F)cn(C2CC(O)C(CO)O2)c1=O (centres undefined)
The melting point of the first is lower: 108 to 109 °C for the first, 126 to 127 °C for the second.

First: Nc1ccc2c(c1)C(=O)c1cc(N)ccc1C2=O
Second: Nc1nc(N)nc(-c2ccc(-c3ccccc3)c3ccccc23)n1
The melting point of the first is higher: 337 to 338 °C for the first, 239 to 240 °C for the second.

First: COc1ccc2c(C(=O)c3ccc(OC4CCCC4N4CCCCC4)cc3)c(-c3ccc(OCCN4CCCC4)cc3)sc2c1 (centres undefined)
Second: C[C@]12C[C@H](c3ccc(OCCCCCS(=O)CCCC(F)(F)C(F)(F)F)cc3)[C@@H]3c4ccc(OC5CCCC5)cc4CC[C@H]3[C@@H]1CC[C@@H]2O (some centres undefined)
The melting point of the first is lower: 68 to 72 °C for the first, 189 °C for the second.

Going from `FC(F)(F)c1ccc(Nc2nccc(-c3cccc(Cl)c3)n2)cc1` to `Nc1ccc(-c2cc(C(F)(F)F)nc(-c3ccc(C(F)(F)F)cc3)n2)cc1`, the melting point falls from 202 °C to 162 °C.

First: CCOC(=O)C(=O)Nc1cc(Cl)c(Cl)cc1[N+](=O)[O-]
Second: CCOC(=O)c1oc2ccc([N+](=O)[O-])cc2c1OC
The melting point of the first is higher: 96 to 97 °C for the first, 90 to 90.4 °C for the second.

First: COC(=O)C(SC)c1ccc(N2C(=O)c3ccccc3C2=O)cc1 (centres undefined)
Second: CC(C)c1cccc(C(C)C)c1NC(=O)NCC1(c2ccc3ccccc3c2)CCC1
The melting point of the first is higher: 168 to 169 °C for the first, 146 to 150 °C for the second.

First: C[C@H](Cn1cccn1)n1cnc2cc3c(=O)n([C@H](C)Cn4cc(Cl)cn4)cnc3cc2c1=O
Second: CCCCn1nc(C=O)nc1Cc1ccc(-c2ccccc2-c2nnn[nH]2)nc1
The melting point of the first is higher: 231 to 232 °C for the first, 167 to 168 °C for the second.

First: CC(C)NC(=O)C1(C(C)C)CCCC1C (centres undefined)
Second: COCCC1(C(=O)N[C@@H](Cc2ccc(-c3c(C(F)(F)F)cc(C)n(C)c3=O)cc2)C(=O)O)CCCC1
The melting point of the first is lower: 90.5 to 91.5 °C for the first, 181 to 183 °C for the second.

Compared with `O=C(O)C(=O)c1ccc(OCCOC23CC4CC(CC(C4)C2)C3)cc1`, `CCOC(=O)C(CC(=O)c1ccc(OC)cc1)C(=O)OCC` is lower in melting point: 107 to 109 °C for the first, 81 to 84 °C for the second.

First: CCc1cn(C2CC(I)C(COC(c3ccccc3)(c3ccccc3)c3ccccc3)O2)c(=O)[nH]c1=O (centres undefined)
Second: c1ccc(N2c3ccccc3[C@@H]3CNCC[C@H]32)cc1
The melting point of the first is higher: 93 to 98 °C for the first, 74 to 76 °C for the second.

Compared with `CCCCCCN1CCC(C(=O)NCC)(c2ccccc2)CC1`, `CSC1CC(=O)N1CC(=O)c1ccccc1` (centres undefined) is lower in melting point: 92 to 94 °C for the first, 43 to 45 °C for the second.

Compared with `CCOC(=O)c1ccc(OCc2nc(-c3ccco3)oc2C)c(Cl)c1`, `CC1=C2C(=C(c3ccccc3Cl)N=CC(=O)N2C)NO1` is lower in melting point: 145 to 146 °C for the first, 136 to 138 °C for the second.

First: CCOC(=O)CNC(=O)Oc1c(C)n(CC)ccc1=O
Second: Cc1nc[nH]c1CSCCNC1=NC(=O)C(C)(C)N1
The melting point of the first is lower: 102 to 103 °C for the first, 232 to 236 °C for the second.

First: COc1ccccc1CCC(C)(O)CC1CCCCN1 (centres undefined)
Second: CCCNCC(O)COc1ccccc1CCCc1cccc2[nH]ccc12 (centres undefined)
The melting point of the first is higher: 115 to 116 °C for the first, 99 to 100 °C for the second.

Compared with `Nc1nc(Br)nc2c1ncn2C1OC(CO)C(O)C1F` (centres undefined), `COc1ccc(-c2cnc3[nH]c(=O)n(CC4CCCCC4)c3n2)cn1` is higher in melting point: 209 to 210 °C for the first, 235 to 237 °C for the second.

Compared with `CC(C)Sc1sc(-c2cc[nH]n2)c2c1C(=O)CC(C)(C)C2`, `CC1(C)CC(C)(C#N)c2cn(-c3ccc(F)cc3)c(C=O)c21` (centres undefined) is lower in melting point: 195 to 198 °C for the first, 165 to 168 °C for the second.

First: CC(C)(C)c1cc(N2CCN(C(=O)c3ccc([N+](=O)[O-])cc3)C2=O)cc(C(C)(C)C)c1O
Second: CN1CC[C@@H](c2c(O)cc(O)c3c(=O)cc(-c4ccccc4)oc23)[C@@H]1CO
The melting point of the first is higher: > 260 °C for the first, 212 to 215 °C for the second.

First: O=C1CCc2ccc3ncoc3c21
Second: O=C(O)C1c2ccccc2CCc2cc(Br)ccc21 (centres undefined)
The melting point of the first is higher: 188 to 190 °C for the first, 129 to 131 °C for the second.

Compared with `CCC(Oc1ccccc1C#N)C(=O)OC1CC(O)C=C2C=CC(C)C(CCC3CC(O)CC(=O)O3)C21` (mixture of isomers), `CCCCc1ccc(C=Nc2ccc(C#N)cc2)cc1` is lower in melting point: 95 to 97 °C for the first, 38.1 to 38.7 °C for the second.

First: O=C(O)[C@H]1NCC[C@@H](O)[C@@H]1O
Second: Cc1nnnn1CCCC(=O)O
The melting point of the first is higher: 253 to 260 °C for the first, 71 to 72.5 °C for the second.

First: O=C(CBr)CCc1ccc(Br)cc1
Second: COc1ccc(O)c(CSc2nc(C)cn2C)c1
The melting point of the first is lower: 63 to 64 °C for the first, 111 to 112 °C for the second.

With `N#Cc1cnn(-c2ccc(Cl)c(Cl)c2Cl)c1N1CCCC1=O` the melting point was 160 to 161 °C.
